Source: patent US8476449B2, “Radioactive iodine labeled organic compound or salt thereof” (Nihon Medi-Physics Co., Ltd., priority 2010, dated 2013)
Where two headings read alike, the source gives them in different places.

Experiments:
[1] = molecular target: T1, Aβ42 aggregate (Homo sapiens, UniProt P05067); assay: Inhibition constant toward Aβ42 aggregate (thioflavin S competition); format: binding; conditions: thioflavin S as ligand, read-out: Ki values (Aβ42 in Table 5)
T1 construct: Aβ (1-42) peptide; purchased Peptide Institute, Inc
T1 sequence (P05067 672-713 limits assumed): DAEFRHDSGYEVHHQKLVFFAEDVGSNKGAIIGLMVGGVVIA
Protocol: (§1) First, the dissociation constant (Kd) of thioflavin S used as a competitive ligand was first determined by a saturation experiment in order to calculate inhibition constants of compounds 1 to 3. That is, a mixed solution of a 10 vol % ethanol aqueous solution of thioflavin S (0.1-12.8 μmol/L) and the tau protein aggregate (final concentration 0.2 μmol/L, prepared in Example 9) or the Aβ42 aggregate (final concentration 2.2 μmol/L, prepared in Example 11) was incubated for 30 minutes, and the fluorescence intensity was measured using a fluorescence plate reader (FLEX STATION, Molecular Devices). The fluorescence intensity was measured at Ex 440 nm and Em 510 nm for the tau protein aggregate and Ex 440 nm and Em 490 nm for the Aβ42 aggregate. A saturation curve was prepared using GraphPad Prism, and the Kd value for thioflavin S was calculated.
(§2) Next, a mixed solution of a 10 volt ethanol aqueous solution of thioflavin S (1.5 μmol/L) and a test compound (0.6 nmol/L to 10 μmol/L) together with the tau protein aggregate (final concentration 0.2 μmol/L, prepared in Example 9) or the Aβ42 aggregate (final concentration 10 μg/ml, prepared in Example 11) was incubated for 30 minutes. Then, the fluorescence intensities at Ex 440 nm and Em 510 nm for the tau protein aggregate and Ex 440 nm and Em 490 nm for the Aβ42 aggregate were measured using a fluorescence plate reader (FLEX STATION, Molecular Devices). GraphPad Prism inhibition curves were prepared, and Ki values of compounds 1 to 3 were determined using the above obtained Kd value of thioflavin S.

[2] = molecular target: T2, tau protein aggregate (Homo sapiens, UniProt P10636); assay: Inhibition constant toward tau protein aggregate (thioflavin S competition); format: binding; set-up: made in house; host or cells: E. coli BL21; conditions: for Ki ratios of Aβ42/Tau: ratio of Ki Aβ42 aggregate to Ki tau protein aggregate; for Ki: thioflavin S as ligand, tau protein aggregate, read-out: Ki values (Tau in Table 5)
T2 sequence (P10636 1-441 isoform P10636-8): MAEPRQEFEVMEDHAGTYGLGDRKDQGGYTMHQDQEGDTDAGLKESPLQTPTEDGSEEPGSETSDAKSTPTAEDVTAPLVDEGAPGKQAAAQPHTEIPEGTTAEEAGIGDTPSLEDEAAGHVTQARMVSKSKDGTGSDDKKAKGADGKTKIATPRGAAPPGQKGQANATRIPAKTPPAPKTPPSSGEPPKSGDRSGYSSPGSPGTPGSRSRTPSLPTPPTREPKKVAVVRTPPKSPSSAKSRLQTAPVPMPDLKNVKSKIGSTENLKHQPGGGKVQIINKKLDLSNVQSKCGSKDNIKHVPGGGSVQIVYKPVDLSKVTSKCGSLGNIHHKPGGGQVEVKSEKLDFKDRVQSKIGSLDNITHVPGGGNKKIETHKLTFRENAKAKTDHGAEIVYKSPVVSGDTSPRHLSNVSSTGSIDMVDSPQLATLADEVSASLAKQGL
Protocol: as §1, §2

[3] = molecular target: T2, tau protein aggregate; assay: Competitive inhibition experiment using thioflavin S (ThS) as ligand, fluorescence spectra; format: binding; set-up: made in house; host or cells: E. coli BL21; conditions: tau protein aggregate 0.2 μmol/L, thioflavin S 1.5 μmol/L, compound 0.1-2.7 μmol/L, excitation 440 nm
Protocol: Tau-441 expression vector (provided by Graduate School of Medicine, Osaka City University) was transferred to E. coli (BL21), culturing was carried out, and a tau protein was extracted and purified. Heparin (0.1 mg/mL) was added to the purified tau protein (1 mg/mL), and incubation in a 50 mmol/L MES buffer (pH 6.8, 100 mmol/L sodium chloride, 0.5 mmol/L EGTA) at 37° C. was carried out for 3 days, thus preparing an aggregate. Formation of the tau protein aggregate was confirmed by SDS-PAGE and thioflavin S fluorescence assay.
A mixed solution (550 μL) of the tau protein aggregate (final concentration […]) thus prepared, thioflavin S (Sigma Aldrich, final concentration 1.5 μmol/L), and compound 1, compound 2, or compound 3 solution at various concentrations (each having final concentrations of 0 to 2.7 μmol/L) was incubated for 30 minutes, and fluorescence spectra at an excitation wavelength of 440 nm were measured using a fluorescence spectrometer (RF-5300PC, Shimadzu Corporation).
In FIGS. 3 to 5, a is a fluorescence spectrum of a sample (sample I) containing only thioflavin S at 1.5 μmol/L, and b is a fluorescence spectrum of a sample (sample II) that is 0.2 μmol/L of the tau protein aggregate in sample I. In FIG. 3, c is a fluorescence spectrum of a sample that is 0.1 μmol/L of compound 1 in sample II, d is a fluorescence spectrum of a sample that is 0.3 μmol/L of compound 1 in sample II, e is a fluorescence spectrum of a sample that is 0.9 μmol/L of compound 1 in sample II, and f is a fluorescence spectrum of a sample that is 2.7 μmol/L of compound 1 in sample II. In FIG. 4, c is a fluorescence spectrum of a sample that is 0.1 μmol/L of compound 2 in sample II, d is a fluorescence spectrum of a sample that is 0.3 μmol/L of compound 2 in sample II, e is a fluorescence spectrum of a sample that is 0.9 μmol/L of compound 2 in sample II, and f is a fluorescence spectrum of a sample that is 2.7 μmol/L of compound 2 in sample II. […]

[4] = molecular target: T1, Aβ42 aggregate; assay: Evaluation experiment of binding to amyloid β (filter radioactivity); conditions: Aβ42 aggregate 30 nmol/L, incubation 3 hours
Protocol: 0.5 mg of Aβ (1-42) peptide (purchased from Peptide Institute, Inc.) was dissolved in 2 mL of a PBS buffer containing 1 mmol/L of EDTA and incubated at 37° C. for 42 hours, thus preparing an Aβ42 aggregate. A glass tube was charged with a 10 vol % ethanol aqueous solution (900 μL), Aβ42 aggregate (50 μL, final concentration 30 nmol/L), and radioactive iodine-labeled compound 1, radioactive iodine-labeled compound 2, or radioactive iodine-labeled compound 3 (each 50 μL, 0.018-0.097 μCi), and incubation was carried out for 3 hours. B/F separation was carried out using a cell harvester (Brandel, M-24), and the radioactivity on the filter was measured in a γ counter. The proportion (%) of the radioactivity count on the filter relative to the radioactivity count of each sample used was determined, and binding of each compound to the Aβ42 aggregate was evaluated.
As a control, 4-dimethylamino-4′-iodochalcone (hereinafter, called a chalcone derivative) was prepared in accordance with a method described in the literature (Ono et al., Bioorg Med Chem, 15, 6802-6809, 2007), and the same experiment was carried out (radioactivity count in sample: […]-0.37 kBq (0.023-0.01 μCi)).

[5] = test system: phosphorylated tau protein; assay: In vitro autoradiography using Alzheimer's disease patient-derived brain slice; format: binding, human; conditions: hippocampus slice of Alzheimer's disease patient, 3.07 kBq/mL, 1 hour
Protocol: A postmortem brain slice (paraffin-embedded slice) of the hippocampus of an Alzheimer's disease patient was purchased from BioChain. The brain slice was deparaffinized, a 10% ethanol-containing PBS solution (3.07 kBq/mL (0.083 μCi/mL)) of radioactive iodine-labeled compound 3 was added thereto, and a reaction was carried out for 1 hour. Subsequently, the sample was washed in sequence with a saturated lithium carbonate 50 vol % ethanol aqueous solution (2 minutes×2), a 50 volt ethanol aqueous solution (2 minutes×2), and purified water (30 seconds×2). The sample was exposed to light on an imaging plate for 48 hours, and analyzed using a bioimaging analyzer (model: BAS-5000, Fuji Photo Film Co., Ltd.). Furthermore, an adjacent slice was stained by an anti-phosphorylated tau protein antibody (AT8, Thermo).

[6] = molecular target: T2, tau protein aggregate; conditions: tau 0.37 μmol/L, incubated 1 to 1.5 hours, PD-10 column
Protocol: Mixed solutions of a tau protein aggregate (final concentration 0.37 μmol/L, prepared in Example 9) or an non-aggregated tau protein (final concentration 0.37 μmol/L) and radioactive iodine-labeled compound 1 (2.0 kBq (0.055 μCi)), radioactive iodine-labeled compound 2 (20 kBq (0.55 μCi)) or radioactive iodine-labeled form 3 (2.0 kBq (0.055 μCi)) were incubated for 1 hour to 1.5 hours, and then subjected to size exclusion chromatography (PD-10 column (GE Healthcare Japan), eluent: phosphate buffered-saline (PBS)). Subsequently, the radioactivity of an eluted fraction of the tau protein aggregate or the non-aggregated tau protein was measured in a γ counter.

[7] = mice
Protocol: Mice were decapitated after 2, 10, 30, and 60 minutes, and then each organ was then removed after blood collection, and radiation counts were measured in a γ counter.

[8] = 2 minutes after tail vein administration
[9] = 10 minutes after tail vein administration
[10] = 30 minutes after tail vein administration
[11] = 60 minutes after tail vein administration

CCOC(=O)CN1C(=O)/C(=C/c2ccc(-c3cccc(I)c3)o2)SC1=S [Compound 1, (Z)-ethyl-2-(5-((5-(3-iodophenyl)furan-2-yl)methylene)-4-oxo-2-thioxothiazolidin-3-yl)acetate]
Ki [1]: 752 nM
Ki ratios of Aβ42/Tau [2]: 1.54
Ki [2]: 489 nM
Inhibition of binding of tau protein aggregate to thioflavin S (fluorescence spectra) [3]: inhibition of binding of a tau protein aggregate to thioflavin S

CCOC(=O)CN1C(=O)/C(=C/c2ccc(-c3cccc(I)c3)o2)NC1=S [Compound 2, (Z)-ethyl-2-(4-((5-(3-iodophenyl)furan-2-yl)methylene)-5-oxo-2-thioxoimidazolidin-1-yl)acetate]
Ki [1]: 864 nM
Ki ratios of Aβ42/Tau [2]: 5.57
Ki [2]: 155 nM
Inhibition of binding of tau protein aggregate to thioflavin S (fluorescence spectra) [3]: inhibition of binding of a tau protein aggregate to thioflavin S

O=C1/C(=C/c2ccc(-c3cccc([125I])c3)o2)NC(=S)N1CCc1c[nH]cn1 [Radioactive iodine-labeled compound 3, (Z)-3-(2-(1H-Imidazol-4-yl)ethyl)-5-((5-(3-(^125I)iodophenyl)furan-2-yl)methylene)-2-thioxoimidazolidin-4-one]
Binding to the Aβ42 aggregate (proportion of radioactivity count on the filter) [4]: significantly lower
Radioactivity distribution on brain slice vs anti-phosphorylated tau antibody (AT8) staining [5]: coincided with the distribution (FIG. 10b) of the phosphorylated tau protein
Radioactivity of eluted fraction: aggregated tau vs non aggregated tau vs buffer [6]: specifically binding to a tau protein aggregate
Amount of radioactivity in organ: Blood [7, 8]: 8.16 ± 1.21 % ID/g
Amount of radioactivity in organ: Blood [7, 9]: 2.77 ± 0.21 % ID/g
Amount of radioactivity in organ: Blood [7, 10]: 2.11 ± 0.28 % ID/g
Amount of radioactivity in organ: Blood [7, 11]: 1.48 ± 0.27 % ID/g
Amount of radioactivity in organ: Brain [7, 8]: 1.54 ± 0.10 % ID/g
Amount of radioactivity in organ: Brain [7, 9]: 1.30 ± 0.12 % ID/g
Amount of radioactivity in organ: Brain [7, 10]: 0.66 ± 0.08 % ID/g
Amount of radioactivity in organ: Brain [7, 11]: 0.25 ± 0.02 % ID/g
Amount of radioactivity in organ: Heart [7, 8]: 8.48 ± 0.97 % ID/g
Amount of radioactivity in organ: Heart [7, 9]: 2.78 ± 0.19 % ID/g
Amount of radioactivity in organ: Heart [7, 10]: 1.73 ± 0.18 % ID/g
Amount of radioactivity in organ: Heart [7, 11]: 1.30 ± 0.37 % ID/g
Amount of radioactivity in organ: Intestine [7, 8]: 2.55 ± 0.16 % ID/g
Amount of radioactivity in organ: Intestine [7, 9]: 7.41 ± 1.21 % ID/g
Amount of radioactivity in organ: Intestine [7, 10]: 17.3 ± 1.67 % ID/g
Amount of radioactivity in organ: Intestine [7, 11]: 23.6 ± 2.39 % ID/g
Amount of radioactivity in organ: Kidney [7, 8]: 12.5 ± 0.76 % ID/g
Amount of radioactivity in organ: Kidney [7, 9]: 7.34 ± 0.70 % ID/g
Amount of radioactivity in organ: Kidney [7, 10]: 4.97 ± 0.71 % ID/g
Amount of radioactivity in organ: Kidney [7, 11]: 3.37 ± 0.30 % ID/g
Amount of radioactivity in organ: Liver [7, 8]: 35.0 ± 2.27 % ID/g
Amount of radioactivity in organ: Liver [7, 9]: 33.3 ± 1.41 % ID/g
Amount of radioactivity in organ: Liver [7, 10]: 27.2 ± 2.05 % ID/g
Amount of radioactivity in organ: Liver [7, 11]: 22.8 ± 2.13 % ID/g
Amount of radioactivity in organ: Lung [7, 8]: 11.4 ± 1.55 % ID/g
Amount of radioactivity in organ: Lung [7, 9]: 4.39 ± 0.42 % ID/g
Amount of radioactivity in organ: Lung [7, 10]: 3.00 ± 0.27 % ID/g
Amount of radioactivity in organ: Lung [7, 11]: 2.03 ± 0.14 % ID/g
Amount of radioactivity in organ: Pancreas [7, 8]: 3.30 ± 0.86 % ID/g
Amount of radioactivity in organ: Pancreas [7, 9]: 2.15 ± 0.23 % ID/g
Amount of radioactivity in organ: Pancreas [7, 10]: 1.15 ± 0.18 % ID/g
Amount of radioactivity in organ: Pancreas [7, 11]: 0.86 ± 0.08 % ID/g
Amount of radioactivity in organ: Spleen [7, 8]: 9.23 ± 0.63 % ID/g
Amount of radioactivity in organ: Spleen [7, 9]: 10.9 ± 2.78 % ID/g
Amount of radioactivity in organ: Spleen [7, 10]: 8.51 ± 2.68 % ID/g
Amount of radioactivity in organ: Spleen [7, 11]: 8.46 ± 2.57 % ID/g
Amount of radioactivity in organ: Stomach [7, 8]: 1.33 ± 0.25 % ID/g
Amount of radioactivity in organ: Stomach [7, 9]: 2.67 ± 1.59 % ID/g
Amount of radioactivity in organ: Stomach [7, 10]: 4.55 ± 1.28 % ID/g
Amount of radioactivity in organ: Stomach [7, 11]: 7.45 ± 5.07 % ID/g
